Assay results reported in patent publication US3955959A, “Herbicide for use in transplanted rice” (priority 1974, dated 1976).

How the values were obtained:
Cs (Cyperus serotinus) = experiment: Example 6 weed control, JAAPR, Japan; format: in vivo; conditions: Normal season
Procedure: (§1) In this example, the efficacy of Herbicide A is presented for a variety of weeds in the presence of ordinary and infant transplant rice. In this example, tests were conducted at the said JAAPR Lab at different times of the year. "Early season" transplants were made in April and "Normal season" transplants were made in July. The size of the transplants at the respective seasons were: Season Seedling Type Plant Height (cm) Leaf Stage ______________________________________ Early Ordinary 16.5 4.5 Early Infant 9.1 2.4 Normal Ordinary 41.7 5.3 Normal Infant 14.7 1.9 ______________________________________
(§2) Duplicate treatments were used. At the time of application of the herbicide, the status of the grass (EC) was as follows: […]

[1] = test system: Obw (other broadleaf weeds); experiment: Example 6 weed control, JAAPR, Japan; format: in vivo; conditions: ordinary
Procedure: as §1, §2

Sh (Scirpus hotarui) = experiment: Example 6 weed control, JAAPR, Japan; format: in vivo; conditions: Normal season
Procedure: as §1, §2

[2] = test system: transplanted rice seedlings; experiment: Example 6 rice seedling injury; format: in vivo
Procedure: as §1, §2

Cc (Commelina communis) = experiment: Example 7 greenhouse preemergence activity; format: in vivo
Procedure: In a further comparative study of the preemergence activity of Herbicides A and B, a variety of weeds and upland direct-seeded rice were tested under greenhouse conditions. The present invention is not concerned with the use of Herbicide A in direct-seeded rice. The primary purpose of the experimental work in this example is to compare relative herbicidal activity of Herbicides A and B against the weeds shown in Table 7; most of these weeds were not available for tests with transplanted rice. Although the relative selectivity of these herbicides in upland rice is also evident, that aspect of the tests is more or less incidental to the purpose of this example.
In this example, rice seeds and seeds of the weeds shown in Table 7 were sown in Ray silt loam soil at a depth of 0.5 inch (1.27 cm) in containers for the soil in a greenhouse. Herbicides A and B were applied to the surface of the soil at a spray volume equivalent to 20 gals/acre (187.1 liters/hectare), followed by 0.5 in (1.27 cm) of overhead irrigation. Temperature and relative humidity in the greenhouse were on the order of 85°F (29°C) and 75%, respectively. Observations were made at 21-28 days after seeding.
In Table 7 are shown the average rates of herbicide required to cause a growth reduction of 85% of the weeds ("GR85 "), and the average rate of herbicide required to cause a growth reduction of 15% ("GR15 ") of the rice plants (Oryza sativa, "Os", variety Bluebelle).

transplanted rice = experiment: Crop safety to transplanted rice, general; format: in vivo
[3] = test system: Brachiaria platyphylla, Digitaria spp, Echinochloa spp, Eleusine indica, Leptochloa spp and Setaria spp; experiment: Weeds effectively treated to date: grasses; format: in vivo
[4] = test system: Cyperus difformis, Cyperus iria, Cyperus serotinus, Eleocharis acicularis, Eleocharis kuroguwai, Fimbristylis spp, Scirpus hotarui and Scirpus spp; experiment: Weeds effectively treated to date: sedges; format: in vivo
[5] = test system: Alisma canaliculatum, Aneilema japonica, Monochoria vaginalis, Commelina communis; experiment: Weeds effectively treated to date: monocotyledonous broadleaf weeds; format: in vivo
[6] = test system: Ammannia spp, Amaranthus retroflexus, Elatine triandra, Jussiaea decurrens, Lindernia pyxidaria, Rotala Sphenoclea zeylanica and Partulaca oleracea; experiment: Weeds effectively treated to date: dicotyledonous broadleaf weeds; format: in vivo
Sa (Sagittaria aginashi) = experiment: Other tests, perennial control; format: in vivo
[7] = test system: weeds in transplanted rice; experiment: Example 6 overall; format: in vivo
Procedure: as §1, §2

weeds in rice fields = conditions: prior art; cited from earlier work

CCCCOCN(C(=O)CCl)c1c(C)cccc1C(C)(C)C [Herbicide A, n-(butoxymethyl)-6'-tert-butyl-2-chloro-o-acetotoluidide]
% Weed Control (Cs) (Cs (Cyperus serotinus); infant, 1.0 kg/ha, 3 DAT): 100%
% Weed Control (Cs) (Cs (Cyperus serotinus); infant, 1.0 kg/ha, 7 DAT): 100%
% Weed Control (Cs) (Cs (Cyperus serotinus); infant, 1.0 kg/ha, -2 DAT): 100%
% Weed Control (Cs) (Cs (Cyperus serotinus); infant, .5 kg/ha, 3 DAT): 100%
% Weed Control (Cs) (Cs (Cyperus serotinus); infant, .5 kg/ha, 7 DAT): 100%
% Weed Control (Cs) (Cs (Cyperus serotinus); infant, .5 kg/ha, -2 DAT): 100%
% Weed Control (Cs) (Cs (Cyperus serotinus); ordinary, 1.0 kg/ha, 3 DAT): 100%
% Weed Control (Cs) (Cs (Cyperus serotinus); ordinary, 1.0 kg/ha, 7 DAT): 100%
% Weed Control (Cs) (Cs (Cyperus serotinus); ordinary, 1.0 kg/ha, -2 DAT): 100%
% Weed Control (Cs) (Cs (Cyperus serotinus); ordinary, .5 kg/ha, 3 DAT): 100%
% Weed Control (Cs) (Cs (Cyperus serotinus); ordinary, .5 kg/ha, 7 DAT): 100%
% Weed Control (Cs) (Cs (Cyperus serotinus); ordinary, .5 kg/ha, -2 DAT): 100%
% Weed Control (Obw) ([1]; Early season, 1.0 kg/ha, 3 DAT): 100%
% Weed Control (Obw) ([1]; Early season, 1.0 kg/ha, 12 DAT): 50%
% Weed Control (Obw) ([1]; Early season, 1.0 kg/ha, -2 DAT): 100%
% Weed Control (Obw) ([1]; Early season, .5 kg/ha, 3 DAT): 100%
% Weed Control (Obw) ([1]; Early season, .5 kg/ha, 12 DAT): 100%
% Weed Control (Obw) ([1]; Early season, .5 kg/ha, -2 DAT): 100%
% Weed Control (Obw) ([1]; Normal season, 1.0 kg/ha, 3 DAT): 100%
% Weed Control (Obw) ([1]; Normal season, 1.0 kg/ha, 7 DAT): 100%
% Weed Control (Obw) ([1]; Normal season, 1.0 kg/ha, -2 DAT): 100%
% Weed Control (Obw) ([1]; Normal season, .5 kg/ha, 3 DAT): 100%
% Weed Control (Obw) ([1]; Normal season, .5 kg/ha, 7 DAT): 100%
% Weed Control (Obw) ([1]; Normal season, .5 kg/ha, -2 DAT): 100%
% Weed Control (Sh) (Sh (Scirpus hotarui); infant, 1.0 kg/ha, 3 DAT): 100%
% Weed Control (Sh) (Sh (Scirpus hotarui); infant, 1.0 kg/ha, 7 DAT): 100%
% Weed Control (Sh) (Sh (Scirpus hotarui); infant, 1.0 kg/ha, -2 DAT): 100%
% Weed Control (Sh) (Sh (Scirpus hotarui); infant, .5 kg/ha, 3 DAT): 100%
% Weed Control (Sh) (Sh (Scirpus hotarui); infant, .5 kg/ha, 7 DAT): 100%
% Weed Control (Sh) (Sh (Scirpus hotarui); infant, .5 kg/ha, -2 DAT): 100%
% Weed Control (Sh) (Sh (Scirpus hotarui); ordinary, 1.0 kg/ha, 3 DAT): 100%
% Weed Control (Sh) (Sh (Scirpus hotarui); ordinary, 1.0 kg/ha, 7 DAT): 100%
% Weed Control (Sh) (Sh (Scirpus hotarui); ordinary, 1.0 kg/ha, -2 DAT): 100%
% Weed Control (Sh) (Sh (Scirpus hotarui); ordinary, .5 kg/ha, 3 DAT): 100%
% Weed Control (Sh) (Sh (Scirpus hotarui); ordinary, .5 kg/ha, 7 DAT): 100%
% Weed Control (Sh) (Sh (Scirpus hotarui); ordinary, .5 kg/ha, -2 DAT): 100%
Rice Seedling Injury (%) ([2]; Early season, ordinary, 1.0 kg/ha, 3 DAT): 5%
Rice Seedling Injury (%) ([2]; Early season, ordinary, 1.0 kg/ha, 12 DAT): 0%
Rice Seedling Injury (%) ([2]; Early season, ordinary, 1.0 kg/ha, -2 DAT): 10%
Rice Seedling Injury (%) ([2]; Early season, ordinary, .5 kg/ha, 3 DAT): 0%
Rice Seedling Injury (%) ([2]; Early season, ordinary, .5 kg/ha, 12 DAT): 0%
Rice Seedling Injury (%) ([2]; Early season, ordinary, .5 kg/ha, -2 DAT): 10%
Rice Seedling Injury (%) ([2]; Normal season, infant, 1.0 kg/ha, 3 DAT): 20%
Rice Seedling Injury (%) ([2]; Normal season, infant, 1.0 kg/ha, 7 DAT): 10%
Rice Seedling Injury (%) ([2]; Normal season, infant, 1.0 kg/ha, -2 DAT): 40%
Rice Seedling Injury (%) ([2]; Normal season, infant, .5 kg/ha, 3 DAT): 15%
Rice Seedling Injury (%) ([2]; Normal season, infant, .5 kg/ha, 7 DAT): 10%
Rice Seedling Injury (%) ([2]; Normal season, infant, .5 kg/ha, -2 DAT): 20%
Rice Seedling Injury (%) ([2]; Normal season, ordinary, 1.0 kg/ha, 3 DAT): 15%
Rice Seedling Injury (%) ([2]; Normal season, ordinary, 1.0 kg/ha, 7 DAT): 10%
Rice Seedling Injury (%) ([2]; Normal season, ordinary, 1.0 kg/ha, -2 DAT): 30%
Rice Seedling Injury (%) ([2]; Normal season, ordinary, .5 kg/ha, 3 DAT): 15%
Rice Seedling Injury (%) ([2]; Normal season, ordinary, .5 kg/ha, 7 DAT): 5%
Rice Seedling Injury (%) ([2]; Normal season, ordinary, .5 kg/ha, -2 DAT): 25%
rice toxicity, infant vs ordinary seedlings ([2]; infant vs ordinary): No difference
rice toxicity, preemergence vs later treatments ([2]; preemergence treatments vs later): somewhat more toxic to rice
resistance of Cc (Cc (Commelina communis)): resistant
safe application timing (transplanted rice; 2 days before transplant (Table 6) to 14 DAT (Table 4)): can safely be applied preemergence
crop injury, transplanted rice (transplanted rice; recommended use rates): negligible crop injury
effectively treated grasses [3]: effectively treated
effectively treated sedges [4]: effectively treated
effectively treated monocotyledonous broadleaf weeds [5]: effectively treated
effectively treated dicotyledonous broadleaf weeds [6]: effectively treated
activity against Sa (Sa (Sagittaria aginashi)): generally weak
weed control in words ([7]; all weeds except Sagittaria (Sp)): very effective
toxicity to weeds and rice, normal vs early season ([7]; normal season vs early season): slightly more toxic to both weeds and rice
efficacious application period ([7]; relative to transplanting): from 2 days before transplanting to 12 DAT

CCCCOCN(C(=O)CCl)c1c(CC)cccc1CC [Herbicide B, n-(butoxymethyl)-2',6'-diethyl-2-chloroacetanilide, reference compound]
period of application (weeds in rice fields): only brief periods of application
